Laboratory results from patent US20140348819A1, “Methods of Treating Cancer” (Dana-Farber Cancer Institute, Inc., priority 2011, published 2014).

Test system: six V600E BRAF melanoma cell lines
Experiment: Screening of recombinant RTK ligands for ability to confer resistance to BRAFi (PLX4720) or MEKi (PD184352) (Table 4)
Type: cell-based, human
Set-up: ability of recombinant RTK ligand to confer resistance / ability of recombinant RTK ligand to confer resistance (screening value): scale not given here
Experimental: HGF is the only one that can substantially confer drug resistance to the cell lines.
The complexity of the tumor microenvironment is much greater than an in vitro co-culture system. Therefore, the inventors explored whether the activation of other RTKs could result in a similar resistance as that observed with the activation of MET. To this end, six V600E BRAF melanoma cell lines were tested for their resistance to either BRAFi (PLX4720) or MEKi (PD184352) after the addition of 22 RTK ligands that have the potential of activating almost all known RTKs. […] The activation of a selected subset of these RTKs was confirmed by western blotting and by high throughput tyrosine kinase phosphorylation profiling.

IGF-I
ability of recombinant RTK ligand to confer resistance (A2058, PD184352 - 1 uM, ligand 0.4 ng/ml): 1.10
ability of recombinant RTK ligand to confer resistance (A2058, PD184352 - 1 uM, ligand 1.6 ng/ml): 1.02
ability of recombinant RTK ligand to confer resistance (A2058, PD184352 - 1 uM, ligand 6.25 ng/ml): 1.03
ability of recombinant RTK ligand to confer resistance (A2058, PD184352 - 1 uM, ligand 25 ng/ml): 1.08
ability of recombinant RTK ligand to confer resistance (A2058, PD184352 - 1 uM, ligand 100 ng/ml): 1.02
ability of recombinant RTK ligand to confer resistance (A2058, PLX4720 - 2 uM, ligand 0.4 ng/ml): 1.05
ability of recombinant RTK ligand to confer resistance (A2058, PLX4720 - 2 uM, ligand 1.6 ng/ml): 0.95
ability of recombinant RTK ligand to confer resistance (A2058, PLX4720 - 2 uM, ligand 6.25 ng/ml): 0.97
ability of recombinant RTK ligand to confer resistance (A2058, PLX4720 - 2 uM, ligand 25 ng/ml): 1.04
ability of recombinant RTK ligand to confer resistance (A2058, PLX4720 - 2 uM, ligand 100 ng/ml): 0.99
ability of recombinant RTK ligand to confer resistance (C32, PD184352 - 1 uM, ligand 0.4 ng/ml): 1.05
ability of recombinant RTK ligand to confer resistance (C32, PD184352 - 1 uM, ligand 1.6 ng/ml): 1.04
ability of recombinant RTK ligand to confer resistance (C32, PD184352 - 1 uM, ligand 6.25 ng/ml): 1.21
ability of recombinant RTK ligand to confer resistance (C32, PD184352 - 1 uM, ligand 25 ng/ml): 1.16
ability of recombinant RTK ligand to confer resistance (C32, PD184352 - 1 uM, ligand 100 ng/ml): 1.21
ability of recombinant RTK ligand to confer resistance (C32, PLX4720 - 2 uM, ligand 0.4 ng/ml): 1.08
ability of recombinant RTK ligand to confer resistance (C32, PLX4720 - 2 uM, ligand 1.6 ng/ml): 1.12
ability of recombinant RTK ligand to confer resistance (C32, PLX4720 - 2 uM, ligand 6.25 ng/ml): 1.17
ability of recombinant RTK ligand to confer resistance (C32, PLX4720 - 2 uM, ligand 25 ng/ml): 1.15
ability of recombinant RTK ligand to confer resistance (C32, PLX4720 - 2 uM, ligand 100 ng/ml): 1.07
ability of recombinant RTK ligand to confer resistance (Colo 829, PD184352 - 1 uM, ligand 0.4 ng/ml): 1.06
ability of recombinant RTK ligand to confer resistance (Colo 829, PD184352 - 1 uM, ligand 1.6 ng/ml): 0.97
ability of recombinant RTK ligand to confer resistance (Colo 829, PD184352 - 1 uM, ligand 6.25 ng/ml): 1.03
ability of recombinant RTK ligand to confer resistance (Colo 829, PD184352 - 1 uM, ligand 25 ng/ml): 1.01
ability of recombinant RTK ligand to confer resistance (Colo 829, PD184352 - 1 uM, ligand 100 ng/ml): 1.08
ability of recombinant RTK ligand to confer resistance (Colo 829, PLX4720 - 2 uM, ligand 0.4 ng/ml): 1.00
ability of recombinant RTK ligand to confer resistance (Colo 829, PLX4720 - 2 uM, ligand 1.6 ng/ml): 0.99
ability of recombinant RTK ligand to confer resistance (Colo 829, PLX4720 - 2 uM, ligand 6.25 ng/ml): 1.06
ability of recombinant RTK ligand to confer resistance (Colo 829, PLX4720 - 2 uM, ligand 25 ng/ml): 1.03
ability of recombinant RTK ligand to confer resistance (Colo 829, PLX4720 - 2 uM, ligand 100 ng/ml): 1.07
ability of recombinant RTK ligand to confer resistance (G-361, PD184352 - 1 uM, ligand 0.4 ng/ml): 1.06
ability of recombinant RTK ligand to confer resistance (G-361, PD184352 - 1 uM, ligand 1.6 ng/ml): 1.00
ability of recombinant RTK ligand to confer resistance (G-361, PD184352 - 1 uM, ligand 6.25 ng/ml): 1.17
ability of recombinant RTK ligand to confer resistance (G-361, PD184352 - 1 uM, ligand 25 ng/ml): 0.99
ability of recombinant RTK ligand to confer resistance (G-361, PD184352 - 1 uM, ligand 100 ng/ml): 0.95
ability of recombinant RTK ligand to confer resistance (G-361, PLX4720 - 2 uM, ligand 0.4 ng/ml): 1.03
ability of recombinant RTK ligand to confer resistance (G-361, PLX4720 - 2 uM, ligand 1.6 ng/ml): 1.05
ability of recombinant RTK ligand to confer resistance (G-361, PLX4720 - 2 uM, ligand 6.25 ng/ml): 1.11
ability of recombinant RTK ligand to confer resistance (G-361, PLX4720 - 2 uM, ligand 25 ng/ml): 0.99
ability of recombinant RTK ligand to confer resistance (G-361, PLX4720 - 2 uM, ligand 100 ng/ml): 0.87
ability of recombinant RTK ligand to confer resistance (SK-MEL-5, PD184352 - 1 uM, ligand 0.4 ng/ml): 1.01
ability of recombinant RTK ligand to confer resistance (SK-MEL-5, PD184352 - 1 uM, ligand 1.6 ng/ml): 1.01
ability of recombinant RTK ligand to confer resistance (SK-MEL-5, PD184352 - 1 uM, ligand 6.25 ng/ml): 1.08
ability of recombinant RTK ligand to confer resistance (SK-MEL-5, PD184352 - 1 uM, ligand 25 ng/ml): 1.06
ability of recombinant RTK ligand to confer resistance (SK-MEL-5, PD184352 - 1 uM, ligand 100 ng/ml): 1.29
ability of recombinant RTK ligand to confer resistance (SK-MEL-5, PLX4720 - 2 uM, ligand 0.4 ng/ml): 1.01
ability of recombinant RTK ligand to confer resistance (SK-MEL-5, PLX4720 - 2 uM, ligand 1.6 ng/ml): 1.03
ability of recombinant RTK ligand to confer resistance (SK-MEL-5, PLX4720 - 2 uM, ligand 6.25 ng/ml): 1.19
ability of recombinant RTK ligand to confer resistance (SK-MEL-5, PLX4720 - 2 uM, ligand 25 ng/ml): 1.25
ability of recombinant RTK ligand to confer resistance (SK-MEL-5, PLX4720 - 2 uM, ligand 100 ng/ml): 1.12
ability of recombinant RTK ligand to confer resistance (SK-MEL-28, PD184352 - 1 uM, ligand 0.4 ng/ml): 1.10
ability of recombinant RTK ligand to confer resistance (SK-MEL-28, PD184352 - 1 uM, ligand 1.6 ng/ml): 1.06
ability of recombinant RTK ligand to confer resistance (SK-MEL-28, PD184352 - 1 uM, ligand 6.25 ng/ml): 0.98
ability of recombinant RTK ligand to confer resistance (SK-MEL-28, PD184352 - 1 uM, ligand 25 ng/ml): 1.06
ability of recombinant RTK ligand to confer resistance (SK-MEL-28, PD184352 - 1 uM, ligand 100 ng/ml): 1.12
ability of recombinant RTK ligand to confer resistance (SK-MEL-28, PLX4720 - 2 uM, ligand 0.4 ng/ml): 1.24
ability of recombinant RTK ligand to confer resistance (SK-MEL-28, PLX4720 - 2 uM, ligand 1.6 ng/ml): 1.08
ability of recombinant RTK ligand to confer resistance (SK-MEL-28, PLX4720 - 2 uM, ligand 6.25 ng/ml): 1.09
ability of recombinant RTK ligand to confer resistance (SK-MEL-28, PLX4720 - 2 uM, ligand 25 ng/ml): 1.02
ability of recombinant RTK ligand to confer resistance (SK-MEL-28, PLX4720 - 2 uM, ligand 100 ng/ml): 1.01
